Data as given in US7001746B1, “Methods and compositions for the differentiation of human preadipocytes into adipocytes” (Artecel Sciences, Inc., priority 1999, dated 2006).
pEC50: −log10 of the molar value.

Legend:
human preadipocytes [1] = assay: Differentiation of human preadipocytes to adipocytes, Oil Red O staining (Example 2); format: cell-based; settings: Adipocyte, in differentiation medium, read-out: concentration that allows for half maximal stimulation of differentiation
Method: Preadipocytes from the stroma-vascular fraction were resuspended in preadipocyte medium (DME-Ham's F-10, 1:1 (v/v), 10% FBS, and penicillin-streptomycin-fungizone) and plated at 25,000 cells/well in each of the wells of a 96 well plate (150 μl/well). The cells were then placed in a 37° C. 5% CO2 incubator and allowed to settle overnight. The following day, all of the medium was removed and replaced with 150 μl differentiation medium (Dulbecco's Modified Eagle Medium/Ham's F-10 Nutrient Broth (1:1, vol/vol), 15 mM HEPES buffer, pH 7.4, 33 μM biotin, 17 μM pantothenate, 0.2 mM isobutylmethylxanthine, 100 nM insulin, 1 μM dexamethasone, 1 μM BRL 49653 (diluted into medium from a 100× DMSO stock solution), 10% (vol/vol) fetal bovine serum, 60 U/l streptomycin, 60 U/l penicillin and 25 μg/l Fungizone). The cells were maintained on differentiation medium for 3 days. Additional differentiation medium was added as necessary to maintain the proper volume.
120 μl of the medium was removed, taking care to leave a 30 μl layer over the cell surface to prevent the maturing adipocytes from lifting off of the plate surface due to the surface tension created by removal of all the fluid. […]
(§1) Isopropanol (100 μl/well) was then added and the plate was incubated at room temperature for 10 minutes. […] The optical density was measured at 500 nm. […]

human preadipocytes [2] = settings: 1 μM BRL49653
Method: The following procedure was used to determine the amount of lipid that had accumulated in the adipocytes. 120 μl/well of medium was removed from each well of the 96-well plates. Care was taken to prevent drying of the wells. 100 μl/well fixer solution (7% formaldehyde in PBS) was added and the plate was incubated at room temperature for at lease 2 hours. Oil Red O working solution was prepared by adding 4 ml distilled water to 6 ml Oil Red O stock solution (1% Oil Red O in isopropanol). The working solution was incubated for 20 minutes at room temperature and then filtered through Nalgene 0.8 μm filter wear. All of the fixer was removed by aspiration until wells were completely dry.
The cells were then incubated with 40 μl/well Oil Red O working solution at room temperature for 10-15 minutes. Care was taken not to touch the sides of the wells in order to prevent high background due to dye stuck on the wall of the well. The plate was covered during incubation to prevent evaporation. Following this incubation, all of the Oil Red O solution was removed and the cells were washed four times with 200 μl/well distilled water. […]
as §1

[3] = system: differentiated adipocytes; assay: Lipolysis in differentiated human adipocytes, glycerol release (Example 5); format: cell-based; settings: increasing concentrations, 4 hours, adipocytes from five patients; FIG. 6
Method: Preadipocytes from 5 individual patients were isolated and differentiated into adipocytes as described herein. A 96-well plate of adipocytes differentiated by the method in Example 1 was prepared. After 21 days from plating, the cells were washed in Krebs-Ringer buffer and treated with increasing concentrations of isoproterenol. The positive and negative controls (0.5 μM isoproterenol in KRB and KRB alone, respectively) were added in duplicate. The plates were then incubated at 37° C. for four hours.
When lipolytic agents stimulate adipocytes, triglycerides are converted to glycerol and fatty acids. Lipolytic rate was measured in this example by measuring the glycerol released in the medium. At the end of the incubation time, conditioned medium (100 μl) from each well was transferred into a new plate. Glycerol standards (1 mM, 0.5 mM, 0.25 mM, 0.1 mM, 0.05 mM, 0.025 mM, 0 mM) were included.
Glycerol assay reagent (100 μl; Sigma glycerol assay kit) was added to each well. The solutions were mixed well and incubated at room temperature for 15 minutes and then the optical density of each well was read at 540 nm.

`CN(CCOc1ccc(CC2SC(=O)NC2=O)cc1)c1ccccn1` (stereo not drawn) [BRL49653] showed a pEC50 (human preadipocytes [1]) of 7.30 and a differentiation (human preadipocytes [2]) of 100%.

With `CC(C)NCC(O)c1ccc(O)c(O)c1` (stereo not drawn) [isoproterenol] the “stimulation of lipolysis (glycerol release)” value [3] was “dose-dependently stimulate lipolysis”.
